Common to all, as to type: in vivo
Data set [1] deals with Yellow Fever Mosquito (Aedes aegypti, AEDSAE). Put plainly: Bioassay on Yellow Fever Mosquito (YFM) larvae, 96-well plate. The settings on record: about 1 day-old larvae, room temperature, 3 days, scored on mortality. On the procedure: Certain molecules disclosed in this document were tested against YFM using procedures described in the following paragraph. In the reporting of the results, the “GPA & YFM Rating Table” was used (See Table Section).
Master plates containing 400 μg of a molecule dissolved in 100 μL of dimethyl sulfoxide (DMSO) (equivalent to a 4000 ppm solution) are used. A master plate of assembled molecules contains 15 μL per well. To this plate, 135 μL of a 90:10 water/acetone mixture is added to each well. A robot is programmed to dispense 15 μL aspirations from the master plate into an empty 96-well shallow plate (“daughter” plate). There are 6 reps (“daughter” plates) created per master. The created “daughter” plates are then immediately infested with YFM larvae.
The day before plates are to be treated, mosquito eggs are placed in Millipore water containing liver powder to begin hatching (4 g. into 400 mL). After the “daughter” plates are created using the robot, they are infested with 220 μL of the liver powder/larval mosquito mixture (about 1 day-old larvae). After plates are infested with mosquito larvae, a non-evaporative lid is used to cover the plate to reduce drying. Plates are held at room temperature for 3 days prior to grading. After 3 days, each well is observed and scored based on mortality. The results are indicated in the table entitled “Table ABC: Biological Results” (See Table Section).

Data set [2] concerns Beet Armyworm (Spodoptera exigua, LAPHEG). The experiment in a line: Bioassay on Beet Armyworm (BAW), 128-well diet tray assay. The settings on record: 168 h, 50 μg/cm^2 on artificial diet, second instar larvae, 25° C., five to seven days, average of eight wells, read-out: BAW % Control (or Mortality) rating. On the procedure: (§1) Certain molecules disclosed in this document were tested against BAW and CL using procedures described in the following examples. In the reporting of the results, the “BAW & CL Rating Table” was used (See Table Section).
Bioassays on BAW were conducted using a 128-well diet tray assay. One to five second instar BAW larvae were placed in each well (3 mL) of the diet tray that had been previously filled with approximately 1.5 mL of artificial diet to which 50 μg/cm^2 of the test molecule (dissolved in 50 μL of 90:10 acetone-water mixture) had been applied (to each of eight wells) and then allowed to dry. Trays were covered with a clear self-adhesive cover, vented to allow gas exchange, and held at 25° C., 14:10 light-dark for five to seven days. Percent mortality was recorded for the larvae in each well; activity in the eight wells was then averaged. The results are indicated in the table entitled “Table ABC: Biological Results” (See Table Section).

The subject of data set [3] is Cabbage Looper (Trichoplusia ni, TRIPNI). The experiment in a line: Bioassay on Cabbage Looper (CL), 128-well diet tray assay. Conditions: 168 h, 50 μg/cm^2 on artificial diet, second instar larvae, 25° C., five to seven days, average of eight wells, read-out: CL % Control (or Mortality) rating. The method, then:
as §1
Bioassays on CL were conducted using a 128-well diet tray assay, one to five second instar CL larvae were placed in each well (3 mL) of the diet tray that had been previously filled with 1 mL of artificial diet to which 50 μg/cm^2 of the test molecule (dissolved in 50 μL of 90:10 acetone-water mixture) had been applied (to each of eight wells) and then allowed to dry. Trays were covered with a clear self-adhesive cover, vented to allow gas exchange, and held at 25° C., 14:10 light-dark for five to seven days. Percent mortality was recorded for the larvae in each well; activity in the eight wells was then averaged. The results are indicated in the table entitled “Table ABC: Biological Results” (See Table Section).

Usually mortality stands for the share of the test organisms that died.

Structures are written as SMILES.

Regarding `CCOCCNC(=O)c1cc(NC(=O)[C@H]2[C@H](c3cc(Cl)cc(Cl)c3)C2(Cl)Cl)ccc1Cl` (relative stereo) [F54, trans-2-Chloro-5-(2,2-dichloro-3-(3,5-dichlorophenyl)cyclopropane-1-carboxamido)-N-(2-ethoxyethyl)benzamide], in data set [1], the “YFM % Control (or Mortality) rating” value is on record as “B (More than 0-Less than 80)”. For the same compound, the mortality at 50 µg/cm2 in data set [2] and in data set [3] was 50 to 100% in each case.
Take `O=C(NCCCCl)c1cc(NC(=O)[C@H]2[C@H](c3cc(Cl)cc(Cl)c3)C2(Cl)Cl)ccc1Cl` (relative stereo) [F57, trans-2-Chloro-N-(3-chloropropyl)-5-(2,2-dichloro-3-(3,5-dichlorophenyl)cyclopropane-1-carboxamido)benzamide]: the “YFM % Control (or Mortality) rating” value in data set [1] is listed as “D (No activity noticed in this bioassay)”. Besides, the mortality at 50 µg/cm2 in data set [2] and in data set [3] was 50 to 100% in each case.
Take `COCCOCCCNC(=O)c1cc(NC(=O)[C@H]2[C@H](c3cc(Cl)cc(Cl)c3)C2(Cl)Cl)ccc1Cl` (relative stereo) [F58, trans-2-Chloro-5-(2,2-dichloro-3-(3,5-dichlorophenyl)cyclopropane-1-carboxamido)-N-(3-(2-methoxyethoxy)propyl)benzamide]: the “YFM % Control (or Mortality) rating” value in data set [1] was “A (80-100)”. Further, the mortality at 50 µg/cm2 in data set [2] and in data set [3] was 50 to 100% each time.
For `O=C(NCCC(F)(F)C(F)(F)F)c1cc(NC(=O)[C@H]2[C@H](c3cc(Cl)cc(Cl)c3)C2(Cl)Cl)ccc1Cl` (relative stereo) [F60, trans-2-Chloro-5-(2,2-dichloro-3-(3,5-dichlorophenyl)cyclopropane-1-carboxamido)-N-(3,3,4,4,4-pentafluorobutyl)benzamide], the “YFM % Control (or Mortality) rating” value in data set [1] was “D (No activity noticed in this bioassay)”. Besides, the mortality at 50 µg/cm2 in data set [2] and in data set [3] was 50 to 100% throughout.
For the compound `O=C(NCC(F)(F)C(F)(F)C(F)(F)F)c1cc(NC(=O)[C@H]2[C@H](c3cc(Cl)cc(Cl)c3)C2(Cl)Cl)ccc1Cl` (relative stereo) [F61, trans-2-Chloro-5-(2,2-dichloro-3-(3,5-dichlorophenyl)cyclopropane-1-carboxamido)-N-(2,2,3,3,4,4,4-heptafluorobutyl)benzamide], the “YFM % Control (or Mortality) rating” value in data set [1] is reported as “D (No activity noticed in this bioassay)”. Further, the mortality at 50 µg/cm2 in data set [2] and in data set [3] was 50 to 100% in each case.
Regarding `CCCN(C)C(=O)c1cc(NC(=O)[C@H]2[C@H](c3cc(Cl)cc(Cl)c3)C2(Cl)Cl)ccc1Cl` (relative stereo) [F62, trans-2-Chloro-5-(2,2-dichloro-3-(3,5-dichlorophenyl)cyclopropane-1-carboxamido)-N-methyl-N-propylbenzamide], the “YFM % Control (or Mortality) rating” value in data set [1] is “D (No activity noticed in this bioassay)”. The mortality at 50 µg/cm2 in data set [2] and in data set [3] was 50 to 100% in each case.
For `CCN(C)C(=O)c1cc(NC(=O)[C@H]2[C@H](c3cc(Cl)cc(Cl)c3)C2(Cl)Cl)ccc1Cl` (relative stereo) [F63, trans-2-Chloro-5-(2,2-dichloro-3-(3,5-dichlorophenyl)cyclopropane-1-carboxamido)-N-ethyl-N-methylbenzamide], the “YFM % Control (or Mortality) rating” value in data set [1] is listed as “D (No activity noticed in this bioassay)”. The mortality at 50 µg/cm2 in data set [2] and in data set [3] was 50 to 100% throughout.
As to `CN(CCC(F)(F)F)C(=O)c1cc(NC(=O)[C@H]2[C@H](c3cc(Cl)cc(Cl)c3)C2(Cl)Cl)ccc1Cl` (relative stereo) [F64, trans-2-Chloro-5-(2,2-dichloro-3-(3,5-dichlorophenyl)cyclopropane-1-carboxamido)-N-methyl-N-(3,3,3-trifluoropropyl)benzamide], the “YFM % Control (or Mortality) rating” value in data set [1] is recorded as “D (No activity noticed in this bioassay)”. Moreover, the mortality at 50 µg/cm2 in data set [2] and in data set [3] was 50 to 100% throughout.
For `COCCN(C)C(=O)c1cc(NC(=O)[C@H]2[C@H](c3cc(Cl)cc(Cl)c3)C2(Cl)Cl)ccc1Cl` (relative stereo) [F67, trans-2-Chloro-5-(2,2-dichloro-3-(3,5-dichlorophenyl)cyclopropane-1-carboxamido)-N-(2-methoxyethyl)-N-methylbenzamide], in data set [1], the “YFM % Control (or Mortality) rating” value is on record as “D (No activity noticed in this bioassay)”. The mortality at 50 µg/cm2 in data set [2] and in data set [3] was 50 to 100% each time.
Consider `CSCCN(C)C(=O)c1cc(NC(=O)[C@H]2[C@H](c3cc(Cl)cc(Cl)c3)C2(Cl)Cl)ccc1Cl` (relative stereo) [F68, trans-2-Chloro-5-(2,2-dichloro-3-(3,5-dichlorophenyl)cyclopropane-1-carboxamido)-N-methyl-N-(2-(methylthio)ethyl)benzamide], for which, in data set [1], the “YFM % Control (or Mortality) rating” value is listed as “D (No activity noticed in this bioassay)”. The mortality at 50 µg/cm2 in data set [2] and in data set [3] was 50 to 100% in each case.
Take `CN(CC1CC1)C(=O)c1cc(NC(=O)[C@H]2[C@H](c3cc(Cl)cc(Cl)c3)C2(Cl)Cl)ccc1Cl` (relative stereo) [F69, trans-2-Chloro-N-(cyclopropylmethyl)-5-(2,2-dichloro-3-(3,5-dichlorophenyl)cyclopropane-1-carboxamido)-N-methylbenzamide]: in data set [1], the “YFM % Control (or Mortality) rating” value is recorded as “D (No activity noticed in this bioassay)”. The mortality at 50 µg/cm2 in data set [2] and in data set [3] was 50 to 100% each time.
In the case of `O=C(NCC1CC(F)(F)C1)c1cc(NC(=O)[C@H]2[C@H](c3cc(Cl)cc(Cl)c3)C2(Cl)Cl)ccc1Cl` (relative stereo) [F70, trans-2-Chloro-5-(2,2-dichloro-3-(3,5-dichlorophenyl)cyclopropane-1-carboxamido)-N-((3,3-difluorocyclobutyl)methyl)benzamide], the “YFM % Control (or Mortality) rating” value in data set [1] is recorded as “D (No activity noticed in this bioassay)”. In addition, the mortality at 50 µg/cm2 in data set [2] and in data set [3] was 50 to 100% in each case.
With `O=C(Nc1ccc(Cl)c(C(=O)N2CCC(F)(F)C2)c1)[C@H]1[C@H](c2cc(Cl)cc(Cl)c2)C1(Cl)Cl` (relative stereo) [F71, trans-2,2-Dichloro-N-(4-chloro-3-(3,3-difluoropyrrolidine-1-carbonyl)phenyl)-3-(3,5-dichlorophenyl)cyclopropane-1-carboxamide], the “YFM % Control (or Mortality) rating” value in data set [1] is reported as “D (No activity noticed in this bioassay)”. Also, the mortality at 50 µg/cm2 in data set [2] and in data set [3] was 50 to 100% in each case.
`O=C(NCCCC(F)(F)F)c1cc(NC(=O)[C@H]2[C@H](c3cc(Cl)cc(Cl)c3)C2(Cl)Cl)ccc1Cl` (relative stereo) [F72, trans-2-Chloro-5-(2,2-dichloro-3-(3,5-dichlorophenyl)cyclopropane-1-carboxamido)-N-(4,4,4-trifluorobutyl)benzamide]: in data set [1], the “YFM % Control (or Mortality) rating” value is given as “A (80-100)”. The mortality at 50 µg/cm2 in data set [2] and in data set [3] was 50 to 100% each time.
In the case of `CN(CC1CC(F)(F)C1)C(=O)c1cc(NC(=O)[C@H]2[C@H](c3cc(Cl)cc(Cl)c3)C2(Cl)Cl)ccc1Cl` (relative stereo) [F73, trans-2-Chloro-5-(2,2-dichloro-3-(3,5-dichlorophenyl)cyclopropane-1-carboxamido)-N-((3,3-difluorocyclobutyl)methyl)-N-methylbenzamide], the “YFM % Control (or Mortality) rating” value in data set [1] is given as “A (80-100)”. Further, the mortality at 50 µg/cm2 in data set [2] and in data set [3] was 50 to 100% each time.
As to `CC(O)CNC(=O)c1cc(NC(=O)[C@H]2[C@H](c3cc(Cl)cc(Cl)c3)C2(Cl)Cl)ccc1Cl` (relative stereo) [F78, trans-2-Chloro-5-(2,2-dichloro-3-(3,5-dichlorophenyl)cyclopropane-1-carboxamido)-N-(2-hydroxypropyl)benzamide], the “YFM % Control (or Mortality) rating” value in data set [1] is listed as “A (80-100)”. The mortality at 50 µg/cm2 in data set [2] and in data set [3] was 50 to 100% in each case.

The values are drawn from patent US9795140B2, “Molecules having pesticidal utility, and intermediates, compositions, and processes, related thereto” (priority 2015, dated 2017).
